Measured values as given in patent US11512053B2, “Arginine methyltransferase inhibitors and uses thereof” (priority 2013, dated 2022).
Counter-ions that a name gives are not always drawn. Like-named read-outs stand apart in the source and are kept apart here.

Assays:
[1] = system: mono-methyl arginine in RKO cells; test: RKO Methylation Assay, In Cell Western (ICW) for detection of mono-methyl arginine and DNA content; assay type: cell-based; conditions: for EC30: Homo sapiens, RKO, 72 h
Excerpt: RKO adherent cells were purchased from ATCC (American Type Culture Collection), Manassas, Va., USA. DMEM/Glutamax medium, penicillin-streptomycin, heat inactivated fetal bovine serum, 0.05% trypsin and D-PBS were purchased from Life Technologies, Grand Island, N.Y., USA. Odyssey blocking buffer, 800 CW goat anti-rabbit IgG (H+L) antibody, and Licor Odyssey infrared scanner were purchased from Licor Biosciences, Lincoln, Nebr., USA. Mono-methyl arginine antibody was purchased from Cell Signaling Technology, Danvers, Mass., USA. Methanol was purchased from VWR, Franklin, Mass., USA. 10% Tween 20 was purchased from KPL, Inc., Gaithersburg, Md., USA. DRAQ5 was purchased from Biostatus Limited, Leicestershire, UK.
RKO adherent cells were maintained in growth medium (DMEM/Glutamax medium supplemented with 10% v/v heat inactivated fetal bovine serum and 100 units/mL penicillin-streptomycin) and cultured at 37° C. under 5% CO2.
Cell treatment, In Cell Western (ICW) for detection of mono-methyl arginine and DNA content. […] Compound (100 nL) from a 96-well source plate was added directly to 384 well cell plate. Plates were incubated at 37° C., 5% CO2 for 72 hours. After three days of incubation, plates were brought to room temperature outside of the incubator for ten minutes and blotted on paper towels to remove cell media. 50 μL of ice cold 100% methanol was added directly to each well and incubated for 30 min at room temperature. After 30 min, plates were transferred to a Biotek EL406 plate washer and washed 2 times with 100 μL per well of wash buffer (1×PBS). Next 60 μL per well of Odyssey blocking buffer (Odyssey Buffer with 0.1% Tween 20 (v/v)) were added to each plate and incubated 1 hour at room temperature. Blocking buffer was removed and 20 μL per well of primary antibody was added (mono-methyl arginine diluted 1:200 in Odyssey buffer with 0.1% Tween 20 (v/v)) and plates were incubated overnight (16 hours) at 4° C. Plates were washed 5 times with 100 μL per well of wash buffer. […] The plates were washed 5 times with 100 μL per well wash buffer then 2 times with 100 μL per well of water. Plates were allowed to dry at room temperature then imaged on the Licor Odyssey machine which measures integrated intensity at 700 nm and 800 nm wavelengths. Both 700 and 800 channels were scanned.
Calculations: First, the ratio for each well was determined by:
Each plate included fourteen control wells of DMSO only treatment (minimum activation) as well as fourteen control wells for maximum activation treated with 20 μM of a reference compound. The average of the ratio values for each control type was calculated and used to determine the percent activation for each test well in the plate. Reference compound was serially diluted three-fold in DMSO for a total of nine test concentrations, beginning at 20 μM. Percent activation was determined and EC30 curves were generated using triplicate wells per concentration of compound.

[2] = biological target: full-length human PRMT6 (Flag- and His-tagged) (Homo sapiens, UniProt Q96LA8); test: PRMT6 Biochemical Assay (3H-SAM Flashplate, peptide substrate)
Excerpt: (§1) General Materials. S-adenosylmethionine (SAM), S-adenosylhomocysteine (SAH), bicine, Tween20, dimethylsulfoxide (DMSO), bovine skin gelatin (BSG), sodium butyrate and Tris(2-carboxyethyl)phosphine hydrochloride solution (TCEP) were purchased from Sigma-Aldrich at the highest level of purity possible. ^3H-SAM was purchase from American Radiolabeled Chemicals with a specific activity of 80 Ci/mmol. 384-well streptavidin Flashplates were purchased from PerkinElmer.
Substrates. Peptide representative of human histone H4 residues 36-50 was synthesized with an N-terminal linker-affinity tag motif and a C-terminal amide cap by 21st Century Biochemicals. The peptide was purified by high-performance liquid chromatography (HPLC) to greater than 95% purity and confirmed by liquid chromatography mass spectrometry (LC-MS). The sequence was Biot-Ahx-[…]-amide and contained a monomethylated lysine at position 44 (SEQ ID NO.:5).
Molecular Biology: Full-length human PRMT6 (NM_018137.2) transcript clone was amplified from an HEK 293 cDNA library, incorporating a flanking 5′ sequence encoding a FLAG tag ([…]) (SEQ ID NO.:6) fused directly to Ser 2 of PRMT6 and a 3′ sequence encoding a hexa His sequence (HHHHHH) (SEQ ID NO.:17) fused directly to Asp 375. The amplified gene was subcloned into pFastBacMam (Viva Biotech).
Protein Expression. Recombinant baculovirus were generated according to Bac-to-Bac kit instructions (Life Technologies). […] Infections were carried out at 37° C. for 48 hours, harvested by centrifugation, and stored at −80° C. for purification.
Protein Purification. […] Column was washed with 20 mM imidazole in the same buffer and Flag-PRMT6-His was eluted with 150 mM imidazole. Pooled fractions were dialysed against buffer N^1-A and further purified by anti-flag M2 affinity chromatography. Flag-PRMT6-His was eluted with 200 ug/ml FLAG peptide in the same buffer. Pooled fractions were dialysed in 20 mM Tris, 150 mM NaCl, 10% glycerol and 5 mM β-mercaptoethanol, pH 7.8. The purity of recovered protein was 95%.
General Procedure for PRMT6 Enzyme Assays on Peptide Substrates. The assays were all performed in a buffer consisting of 20 mM Bicine (pH=7.6), 1 mM TCEP, 0.005% BSG, and 0.002% Tween 20, prepared on the day of use. Compounds in 100% DMSO (1 ul) were spotted into a polypropylene 384-well V-bottom plates (Greiner) using a Platemate Plus outfitted with a 384-channel head (Thermo Scientific). DMSO (1 ul) was added to Columns 11, 12, 23, 24, rows A-H for the maximum signal control and 1 ul of SAH, a known product and inhibitor of PRMT6, was added to columns 11, 12, 23, 24, rows I-P for the minimum signal control. A cocktail (40 ul) containing the PRMT6 enzyme was added by Multidrop Combi (Thermo-Fisher). The compounds were allowed to incubate with PRMT6 for 30 min at room temperature, then a cocktail (10 ul) containing SAM and peptide was added to initiate the reaction (final volume=51 ul). The final concentrations of the components were as follows: PRMT6 was 1 nM, ^3H-SAM was 200 nM, non-radiolabeled SAM was 250 nM, peptide was 75 nM, SAH in the minimum signal control wells was 1 mM, and the DMSO concentration was 2%. The assays were stopped by the addition of non-radiolabeled SAM (10 ul) to a final concentration of 400 uM, which dilutes the ^3H-SAM to a level where its incorporation into the peptide substrate is no longer detectable. 50 ul of the reaction in the 384-well polypropylene plate was then transferred to a 384-well Flashplate and the biotinylated peptides were allowed to bind to the streptavidin surface for at least 1 hour before being washed once with 0.1% Tween20 in a Biotek ELx405 plate washer. The plates were then read in a PerkinElmer TopCount plate reader to measure the quantity of ^3H-labeled peptide bound to the Flashplate surface, measured as disintegrations per minute (dpm) or alternatively, referred to as counts per minute (cpm). […]

[3] = biological target: full-length human PRMT8 isoform 1 (Homo sapiens, UniProt Q9NR22); test: PRMT8 Biochemical Assay (3H-SAM Flashplate, peptide substrate); conditions: single experiment or average of multiple experiments; read-out: Biochemical IC50 PRMT8
Excerpt: as §1, with “isopropyl-β-D-thiogalactopyranoside (IPTG),” for “sodium butyrate”
Substrates. Peptide representative of human histone H4 residues 31-45 was synthesized with an N-terminal linker-affinity tag motif and a C-terminal amide cap by 21st Century Biochemicals. The peptide was purified by high-performance liquid chromatography (HPLC) to greater than 95% purity and confirmed by liquid chromatography mass spectrometry (LC-MS). The sequence was Biot-Ahx-[…]-amide (SEQ ID NO.:8).
The resulting construct encodes an N-terminal GST tag and a thrombin cleavage sequence ([…] […] […] […] SPEF) (SEQ ID NO.:9) fused directly to Met 1 of PRMT8.
Protein Expression. E. coli (BL21(DE3) Gold, Stratagene) made competent by the CaCl2) method were transformed with the PRMT8 construct and ampicillin selection. Protein over-expression was accomplished by growing the PRMT8 expressing E. coli clone and inducing expression with 0.3 mM IPTG at 16° C. The culture was grown for 12 hours, harvested by centrifugation, and stored at −80° C. for purification.
Protein Purification. […] GST-tagged PRMT8 was eluted with 50 mM Tris, 2 mM glutathione, pH 7.8. Pooled fractions were cleaved by thrombin (10U) and dialysed in buffer A. GST was removed by reloading the cleaved protein sample onto glutathione sepharose column and PRMT8 was collected in the flow-through fractions. PRMT8 was purified further by ceramic hydroxyapatite chromatography. The column was washed with 50 mM phosphate buffer, 100 mM NaCl, 5% glycerol, 5 mM β-mercaptoethanol, pH 7.8 and PRMT8 was eluted by 100 mM phosphate in the same buffer. Protein was concentrated and buffer was exchanged to 50 mM Tris, 300 mM NaCl, 10% glycerol, 5 mM β-mercaptoethanol, pH 7.8 by ultrafiltration. The purity of recovered protein was 89%.
General Procedure for PRMT8 Enzyme Assays on Peptide Substrates. The assays were all performed in a buffer consisting of 20 mM Bicine (pH=7.6), 1 mM TCEP, 0.005% BSG, and 0.002% Tween 20, prepared on the day of use. Compounds in 100% DMSO (1 ul) were spotted into a polypropylene 384-well V-bottom plates (Greiner) using a Platemate Plus outfitted with a 384-channel head (Thermo Scientific). DMSO (1 ul) was added to Columns 11, 12, 23, 24, rows A-H for the maximum signal control and 1 ul of SAH, a known product and inhibitor of PRMT8, was added to columns 11, 12, 23, 24, rows I-P for the minimum signal control. A cocktail (40 ul) containing the PRMT8 enzyme was added by Multidrop Combi (Thermo-Fisher). The compounds were allowed to incubate with PRMT8 for 30 min at room temperature, then a cocktail (10 ul) containing ^3H-SAM and peptide was added to initiate the reaction (final volume=51 ul). The final concentrations of the components were as follows: PRMT8 was 1.5 nM, ^3H-SAM was 50 nM, non-radiolabeled SAM was 550 nM, peptide was 150 nM, SAH in the minimum signal control wells was 1 mM, and the DMSO concentration was 2%. The assays were stopped by the addition of non-radiolabeled SAM (10 ul) to a final concentration of 400 uM, which dilutes the ^3H-SAM to a level where its incorporation into the peptide substrate is no longer detectable. 50 ul of the reaction in the 384-well polypropylene plate was then transferred to a 384-well Flashplate and the biotinylated peptides were allowed to bind to the streptavidin surface for at least 1 hour before being washed once with 0.1% Tween20 in a Biotek ELx405 plate washer. […]

full-length human PRMT6 (Flag- and His-tagged), sequence (Q96LA8 with tags, fused parts or gaps): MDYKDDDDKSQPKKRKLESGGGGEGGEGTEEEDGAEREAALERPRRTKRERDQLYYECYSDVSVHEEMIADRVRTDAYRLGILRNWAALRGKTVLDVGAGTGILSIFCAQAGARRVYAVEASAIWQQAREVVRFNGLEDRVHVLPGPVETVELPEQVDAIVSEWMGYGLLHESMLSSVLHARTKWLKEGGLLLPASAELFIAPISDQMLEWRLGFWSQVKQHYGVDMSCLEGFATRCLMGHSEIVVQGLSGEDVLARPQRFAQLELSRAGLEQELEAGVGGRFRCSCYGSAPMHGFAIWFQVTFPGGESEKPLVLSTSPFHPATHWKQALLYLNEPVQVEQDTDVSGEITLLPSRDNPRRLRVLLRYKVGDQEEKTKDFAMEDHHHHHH
full-length human PRMT8 isoform 1, sequence (Q9NR22 whole entry, canonical isoform): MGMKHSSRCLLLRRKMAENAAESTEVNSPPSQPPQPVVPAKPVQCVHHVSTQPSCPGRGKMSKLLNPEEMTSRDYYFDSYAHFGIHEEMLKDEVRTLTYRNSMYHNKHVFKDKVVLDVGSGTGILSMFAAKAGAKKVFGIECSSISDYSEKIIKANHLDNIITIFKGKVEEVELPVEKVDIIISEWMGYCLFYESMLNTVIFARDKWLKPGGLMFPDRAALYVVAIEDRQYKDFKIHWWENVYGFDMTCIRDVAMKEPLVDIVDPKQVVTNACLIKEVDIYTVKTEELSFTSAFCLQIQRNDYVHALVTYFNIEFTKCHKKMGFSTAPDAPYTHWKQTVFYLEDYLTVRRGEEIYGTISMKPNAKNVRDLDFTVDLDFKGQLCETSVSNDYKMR

Row | IC50 [3] [nM] | SMILES | EC30 ([1]; read-out: In Cell Western EC30, RKO cells, 72 hours compound incubation, mono-methyl arginine signal normalised to DNA content (DRAQ5), percent activation vs 20 μM reference compound) [µM] | EC30 ([1]; read-out: In Cell Western EC30, RKO cells, 72 hours incubation, mono-methyl arginine signal normalised to DNA content, single experiment or average of multiple experiments) [µM] | IC50 ([2]; Biochemical IC50 PRMT6) [nM] | IC50 ([2]; Biochemical IC50 PRMT6, single experiment or average of multiple experiments) [nM] | EC30 ([1]; RKO cells, 72 hours incubation, mono-methyl arginine signal normalised to DNA content, single experiment or average of multiple experiments, read-out: In Cell Western EC30) [µM] | In Cell Western EC30 ([1]; RKO cells, 72 hours compound incubation, mono-methyl arginine signal normalised to DNA content (DRAQ5), percent activation vs 20 μM reference compound)
1 | – | CCOCC1(COCC)CCC(c2n[nH]cc2CN(C)CCNC)CC1 [Compound 158, ([3-[4,4-bis(ethoxymethyl)cyclohexyl]-1H-pyrazol-4-yl]methyl)(methyl)[2-(methylamino)ethyl]amine hydrochloride salt] | < 3 | 0.008 | < 100 | 91 | – | –
2 | 11.6 | CN(CCN)Cc1c[nH]nc1C1CCC(N2CCOCC2)CC1 (stereo not shown) [Compound 43, N^1-methyl-N^1-((3-(4-morpholinocyclohexyl)-1H-pyrazol-4-yl)methyl)ethane-1,2-diamine] | – | – | – | – | 2.6 | A (“A” indicates an EC30 ≤ 3.00 μM)
